Assay [1] has as its system symmetric dimethylation of arginine (SDMA) of PRMT5 substrates in MCF-7 cells. Kind of assay: PRMT5 Cell Target Engagement (TE) Assay. It is filed as cell-based. The conditions noted are these: 3 days treatment, SDMA high content imaging. The essentials: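 MCF-7 cells treated 3 days at 37 °C with a ten-point 1:3 titration from 10000 nM. Fixed cells immunostained with anti-SDMA and Alexa488 secondary; nuclear fluorescence quantified by high-content imaging versus DMSO wells, with IC50 from a 4-parameter fit.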

For assay [2], the target named is T1, Full-length (FL)-PRMT5-MEP50 enzyme complex (Homo sapiens, UniProt O14744).
T1 construct: Full-length (FL)-PRMT5-MEP50 enzyme complex (recombinant proteins from baculovirus-transfected Sf21 cells: FL-PRMT5; MW=73837 kDa and FL-MEP50; MW=38614); made in house; host or cells: baculovirus-transfected Sf21 cells
T1 sequence (O14744 whole entry): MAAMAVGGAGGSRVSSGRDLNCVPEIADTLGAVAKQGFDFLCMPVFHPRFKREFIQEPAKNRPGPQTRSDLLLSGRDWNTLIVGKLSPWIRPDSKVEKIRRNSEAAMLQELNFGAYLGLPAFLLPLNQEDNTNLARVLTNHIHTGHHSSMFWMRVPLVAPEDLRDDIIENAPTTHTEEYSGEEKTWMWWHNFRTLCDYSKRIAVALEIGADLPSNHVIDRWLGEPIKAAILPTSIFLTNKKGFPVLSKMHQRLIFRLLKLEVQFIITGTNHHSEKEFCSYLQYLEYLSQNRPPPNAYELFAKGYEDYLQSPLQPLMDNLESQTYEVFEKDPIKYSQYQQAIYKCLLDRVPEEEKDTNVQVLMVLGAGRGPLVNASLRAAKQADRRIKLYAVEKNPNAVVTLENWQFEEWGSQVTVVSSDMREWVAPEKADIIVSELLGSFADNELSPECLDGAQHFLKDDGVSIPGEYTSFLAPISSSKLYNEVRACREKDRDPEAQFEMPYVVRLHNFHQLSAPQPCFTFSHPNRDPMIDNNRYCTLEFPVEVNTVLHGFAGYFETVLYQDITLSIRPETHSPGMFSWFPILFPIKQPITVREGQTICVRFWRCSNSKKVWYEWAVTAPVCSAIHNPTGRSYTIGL
T1 sequence (Q9BQA1 whole entry partner): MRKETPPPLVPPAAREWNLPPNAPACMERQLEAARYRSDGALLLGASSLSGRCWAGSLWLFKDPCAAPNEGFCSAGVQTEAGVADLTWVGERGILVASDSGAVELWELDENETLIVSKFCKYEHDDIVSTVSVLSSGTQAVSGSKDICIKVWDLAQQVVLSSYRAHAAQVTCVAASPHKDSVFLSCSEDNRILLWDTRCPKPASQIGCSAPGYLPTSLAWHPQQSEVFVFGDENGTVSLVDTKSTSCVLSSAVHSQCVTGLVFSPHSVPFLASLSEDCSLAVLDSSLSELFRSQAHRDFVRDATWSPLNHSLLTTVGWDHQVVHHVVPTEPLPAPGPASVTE
Kind of assay: PRMT5-MEP50 Enzyme Methylation Assay (Version A). The format is biochemical. The essentials: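 Compound was pre-incubated with enzyme for 60 min, then reacted 150 min at 37° C. at final 1.0 nM PRMT5-MEP50, 15 μM SAM and 75 nM biotinylated H4R3(Me1) peptide, in 50 mM Bicine pH 8.0 with 1% DMSO. SAMDI mass-spectrometric readout of Me1→Me2 conversion. EC50 from 4- or 7-parameter regression.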

[3] abbreviates: second value of 7 parameter biphasic fit, read-out: Enzyme Methylation Assay Version A (EC50 2).
Where [4] appears, read: single EC50 = 4 parameter single site sigmoidal fit, EC50 1 = first value of 7 parameter biphasic fit, read-out: Enzyme Methylation Assay Version A (EC50 or EC50 1).

pEC50: −log10 of the molar value. Read-outs that look alike come from different tables or passages of the source. Where only a bound is given, the exact number is not on record here.

A word on the pEC50: it is the EC50 on a negative log10 scale, so that one unit is a factor of ten.

With `CC(O)c1cc(C(F)(F)F)cn2cc(C(=O)N3CC[C@]4(Cc5ccccc5CN4)[C@H](O)C3)nc12` (single isomer, unassigned) [Example 109], the pEC50 was 8.08 in assay [1], 6.90 in assay [2] (setting [3]) and 9.56 in assay [2] (setting [4]).
Consider `O=C(c1cn2cc(Br)cc(C(O)C(F)(F)F)c2n1)N1CC[C@]2(Cc3ccccc3CN2)[C@H](O)C1` (single isomer, unassigned) [Example 30, (6-bromo-8-((R or S)-2,2,2-trifluoro-1-hydroxyethyl)imidazo[1,2-a]pyridin-2-yl)((3R,3’R)-3′-hydroxy-1,4-dihydro-2H-spiro[isoquinoline-3,4′-piperidin]-1′-yl)methanone], for which the pEC50 in assay [1] (Homo sapiens, MCF7, 72 h) was 8.44; in assay [2] (setting [3]), 7.00; in assay [2] (setting [4]) it was 9.23.
In the case of `CO[C@H](C)c1cc(-c2cncs2)cn2cc(C(=O)N3CC[C@]4(Cc5ccccc5CN4)[C@H](O)C3)nc12` [Example 241, [(3R,3′R)-3′-hydroxy-1,4-dihydro-1′H,2H-spiro[isoquinoline-3,4′-piperidin]-1′-yl]{8-[(1R)-1-methoxyethyl]-6-(1,3-thiazol-5-yl)imidazo[1,2-a]pyridin-2-yl}methanone], the pEC50 in assay [1] (Homo sapiens, MCF7, 72 h) was 8.31; in assay [2] (setting [3]), 6.68; in assay [2] (setting [4]), 9.03.
Consider `COC(C)c1cc(C(C)C)cn2cc(C(=O)N3CC[C@]4(Cc5ccccc5CN4)[C@H](O)C3)nc12` (stereo partly drawn) [Example 84, A diastereomer of [(3R,3′R)-3′-hydroxy-1,4-dihydro-1′H,2H-spiro[isoquinoline-3,4′-piperidin]-1′-yl][6-isopropyl-8-(1-methoxyethyl)imidazo[1,2-a]pyridin-2-yl]methanone], for which the pEC50 was 7.96 in assay [1] (Homo sapiens, MCF7, 72 h); 6.54 in assay [2] (setting [3]); 9.33 in assay [2] (setting [4]).
Regarding `O=C(c1ccc2c(O)c(C3CC3)cnc2c1)N1CC[C@]2(Cc3ccccc3CN2)[C@H](O)C1` [Example 9, (3-cyclopropyl-4-hydroxyquinolin-7-yl)((3R,3’R)-3′-hydroxy-1,4-dihydro-1′H,2H-spiro[isoquinoline-3,4′-piperidin]-1′-yl)methanone], the pEC50 is 6.16 in assay [1] (Homo sapiens, MCF7, 72 h); 5.33 in assay [2] (setting [3]); 7.87 in assay [2] (setting [4]).
On to `O=C(c1c[nH]c2ncncc12)N1CC[C@]2(Cc3ccccc3CN2)[C@H](O)C1` [Example 190, [(3R,3′R)-3′-hydroxy-1,4-dihydro-1′H,2H-spiro[isoquinoline-3,4′-piperidin]-1′-yl](1H-pyrrolo[2,3-d]pyrimidin-5-yl)methanone], for which the pEC50 is no more than 5.00 in assay [1] (Homo sapiens, MCF7, 72 h) and 6.46 in assay [2] (setting [4]).
Turning to `O=C(c1cn2cc(O)cnc2n1)N1CC[C@]2(Cc3ccccc3CN2)[C@H](O)C1` [Example 129, [(3R,3′R)-3′-hydroxy-1,4-dihydro-1′H,2H-spiro[isoquinoline-3,4′-piperidin]-1′-yl](6-hydroxyimidazo[1,2-a]pyrimidin-2-yl)methanone], the pEC50 in assay [1] (Homo sapiens, MCF7, 72 h) is no more than 5.00; in assay [2] (setting [4]), 6.08.
Turning to `O=C(c1cn2c(n1)C(C1CCOC1)CC(C(F)(F)F)C2)N1CC[C@]2(Cc3ccccc3CN2)[C@H](O)C1` (single isomer, unassigned) [Example 162, ((3R,3′R)-3′-hydroxy-1,4-dihydro-2H-spiro[isoquinoline-3,4′-piperidin]-1′-yl)((6S,8S or 6R,8R)-8-((S or R)-tetrahydrofuran-3-yl)-6-(trifluoromethyl)-5,6,7,8-tetrahydroimidazo[1,2-a]pyridin-2-yl)methanone], the pEC50 in assay [1] was 5.12; in assay [2] (setting [3]) it was 4.03; in assay [2] (setting [4]), 6.59.
For `O=C(c1cn(C2CC2)cn1)N1CC[C@]2(Cc3ccccc3CN2)[C@H](O)C1` [Example 222, (1-cyclopropyl-1H-imidazol-4-yl)[(3R,3′R)-3′-hydroxy-1,4-dihydro-1′H,2H-spiro[isoquinoline-3,4′-piperidin]-1′-yl]methanone], the pEC50 in assay [1] (Homo sapiens, MCF7, 72 h) is no more than 5.00; in assay [2] (setting [3]), 4.59; in assay [2] (setting [4]), 6.37.
The corresponding values for `Cc1c(Br)cnc2nc(C(=O)N3CC[C@]4(Cc5ccccc5CN4)[C@H](O)C3)cn12` [Example 119, (6-bromo-5-methylimidazo[1,2-a]pyrimidin-2-yl)[(3R,3′R)-3′-hydroxy-1,4-dihydro-1′H,2H-spiro[isoquinoline-3,4′-piperidin]-1′-yl]methanone] are 6.56, 5.19 and 7.93.
For `Cc1ccc2c(c1)C[C@]1(CCN(C(=O)c3cn4cc(C5CC5)cnc4n3)C[C@H]1O)NC2` (single isomer, unassigned) [Example 227], the pEC50 in assay [1] (Homo sapiens, MCF7, 72 h) was 7.57; in assay [2] (setting [4]), 8.07.
In the case of `COc1nc(Br)cn2cc(C(=O)N3CC[C@]4(Cc5ccccc5CN4)[C@H](O)C3)nc12` [Example 8], the pEC50 was 8.44 in assay [1] (Homo sapiens, MCF7, 72 h); 6.40 in assay [2] (setting [3]); 8.81 in assay [2] (setting [4]).
Take `COCC1CC(C)Cn2cc(C(=O)N3CC[C@]4(Cc5ccccc5CN4)[C@H](O)C3)nc21` (single isomer, unassigned) [Example 158]: the pEC50 in assay [1] is 5.77; in assay [2] (setting [3]), 4.53; in assay [2] (setting [4]), 7.15.
Turning to `Cc1cc(Br)cn2cc(C(=O)N3CC[C@]4(Cc5ccccc5CN4)[C@H](O)C3)nc12` [Example 44, (6-bromo-8-methylimidazo[1,2-a]pyridin-2-yl)((3R,3’R)-3′-hydroxy-1,4-dihydro-2H-spiro[isoquinoline-3,4′-piperidin]-1′-yl)methanone], the pEC50 in assay [1] (Homo sapiens, MCF7, 72 h) is 8.88; in assay [2] (setting [3]) it was 7.38; in assay [2] (setting [4]), 9.16.
For `CCN1CCNc2cc(C(=O)N3CC[C@]4(Cc5ccccc5CN4)[C@H](O)C3)ccc2C1=O` [Example 26, 4-ethyl-8-((3R,3’R)-3′-hydroxy-1,4-dihydro-1′H,2H-spiro[isoquinoline-3,4′-piperidine]-1′-carbonyl)-1,2,3,4-tetrahydro-5H-1,4-benzodiazepin-5-one], in that order: 7.91, 6.17 and 8.84.
As to `N#CC1(c2cc(Br)cn3cc(C(=O)N4CC[C@]5(Cc6ccccc6CN5)[C@H](O)C4)nc23)CC1` [Example 68, 1-(6-bromo-2-{[(3R,3′R)-3′-hydroxy-1,4-dihydro-1′H,2H-spiro[isoquinoline-3,4′-piperidin]-1′-yl]carbonyl}imidazo[1,2-a]pyridin-8-yl)cyclopropanecarbonitrile], the pEC50 is 7.00 in assay [1] (Homo sapiens, MCF7, 72 h); 5.98 in assay [2] (setting [3]); 8.93 in assay [2] (setting [4]).
`O=C(c1ccnc2ncnn12)N1CC[C@]2(Cc3ccccc3CN2)[C@H](O)C1` [Example 189, [1,2,4]triazolo[1,5-a]pyrimidin-7-yl((3R,3′R)-3′-hydroxy-1,4-dihydro-2H-spiro[isoquinoline-3,4′-piperidin]-1′-yl)methanone]: the pEC50 is 5.46 in assay [1] (Homo sapiens, MCF7, 72 h); 4.18 in assay [2] (setting [3]); 7.52 in assay [2] (setting [4]).
As to `CC1CC(C(F)(F)F)Cn2cc(C(=O)N3CC[C@]4(Cc5ccccc5CN4)[C@H](O)C3)nc21` (single isomer, unassigned) [Example 166, ((3R,3′R)-3′-hydroxy-1,4-dihydro-2H-spiro[isoquinoline-3,4′-piperidin]-1′-yl)((6R,8R or 6S,8S)-8-methyl-6-(trifluoromethyl)-5,6,7,8-tetrahydroimidazo[1,2-a]pyridin-2-yl)methanone], the results for the pEC50 in assay [1], in assay [2] (setting [3]) and in assay [2] (setting [4]) were 7.47, 5.78 and 8.44, respectively.
For `O=C(c1cn2cc(Br)cc(C(O)C(F)(F)F)c2n1)N1CC[C@]2(Cc3ccccc3CN2)[C@H](O)C1` (single isomer, unassigned) [Example 31, (6-bromo-8-((S or R)-2,2,2-trifluoro-1-hydroxyethyl)imidazo[1,2-a]pyridin-2-yl)((3R,3’R)-3′-hydroxy-1,4-dihydro-2H-spiro[isoquinoline-3,4′-piperidin]-1′-yl)methanone], the pEC50 was 8.35 in assay [1], 7.14 in assay [2] (setting [3]) and 9.67 in assay [2] (setting [4]).
For `O=C(c1cn2cc(F)cc(Br)c2n1)N1CC[C@]2(Cc3ccccc3CN2)[C@H](O)C1` [Example 208, (8-bromo-6-fluoroimidazo[1,2-a]pyridin-2-yl)[(3R,3′R)-3′-hydroxy-1,4-dihydro-1′H,2H-spiro[isoquinoline-3,4′-piperidin]-1′-yl]methanone], the pEC50 in assay [1] (Homo sapiens, MCF7, 72 h) was 7.00; in assay [2] (setting [3]), 6.16; in assay [2] (setting [4]), 9.12.
For `O=C(c1cn2cc(Br)nc(OCC3CCCO3)c2n1)N1CC[C@]2(Cc3ccccc3CN2)[C@H](O)C1` (single isomer, unassigned) [Example 100, (6-bromo-8-(((S or R)-tetrahydrofuran-2-yl)methoxy)imidazo[1,2-a]pyrazin-2-yl)((3R,3′R)-3′-hydroxy-1,4-dihydro-2H-spiro[isoquinoline-3,4′-piperidin]-1′-yl)methanone], in that order: 8.38, 7.22 and 9.57.
With `O=C(c1ccnc(-n2cnnn2)c1)N1CC[C@]2(Cc3ccccc3CN2)[C@H](O)C1` [Example 187, (2-(1H-tetrazol-1-yl)pyridin-4-yl)((3R,3′R)-3′-hydroxy-1,4-dihydro-2H-spiro[isoquinoline-3,4′-piperidin]-1′-yl)methanone], the pEC50 in assay [1] (Homo sapiens, MCF7, 72 h) was 5.37; in assay [2] (setting [3]), 4.57; in assay [2] (setting [4]) it was 7.12.

(Values after patent publication US12441730B2, “PRMT5 inhibitors” (Merck Sharp & Dohme LLC, priority 2019, dated 2025).)
